Patent publication US11827628B2, “Compositions and methods for inhibition of the JAK pathway” (Rigel Pharmaceuticals, Inc., priority 2005, dated 2023)
pIC50: −log10 of the molar value.

Test system: up-regulation of ICAM-1 (CD54) by IFNγ in A549 lung epithelial cells
Assay: A549 Epithelial Line Stimulated with IFNγ (ICAM-1 surface expression, FACS)
Assay type: cell-based, human
Conditions: Homo sapiens, A549, A549 cells stimulated with IFNγ, ICAM-1 expression by FACS; read-out: IC50, Example 43
Excerpt: The activity of the compounds of the invention may additionally be characterized by assaying the effect of the 2,4-substituted pyrimidinediamine compounds described herein on A549 lung epithelial cells and U937 cells. A549 lung epithelial cells and U937 cells up-regulate ICAM-1 (CD54) surface expression in response to a variety of different stimuli. Therefore, using ICAM-1 expression as readout, test compound effects on different signaling pathways can be assessed in the same cell type. Stimulation with IL-1β through the IL-1β receptor activates the TRAF6/NFκB pathway resulting in up-regulation of ICAM-1. IFNγ induces ICAM-1 up-regulation through activation of the JAK1/JAK2 pathway. The up-regulation of ICAM-1 can be quantified by flow cytometry across a compound dose curve and EC50, values are calculated. An exemplary assays of this type are described in greater detail in Examples 43 and 44
A549 lung epithelial cells up-regulate ICAM-1 (CD54) surface expression in response to a variety of different stimuli. Therefore, using ICAM-1 expression as readout, compound effects on different signaling pathways can be assessed in the same cell type. IFNγ up-regulates ICAM-1 through activation of the JAK/Stat pathway. In this example, the up-regulation of ICAM-1 by IFNγ was assessed.
The A549 lung epithelial carcinoma cell line originated from the American Type Culture Collection. Routine culturing was with F12K media (Mediatech Inc., Lenexa, KS, Cat. No. 10-025-CV) with 10% fetal bovine serum, 100 I.U. penicillin and […] streptomycin (complete F12k media). Cells were incubated in a humidified atmosphere of 5% CO2 at 37° C. Prior to use in the assay, A549 cells were washed with PBS and trypsinized (Mediatech Inc., Cat. No. 25-052-CI) to lift the cells. The trypsin cell suspension was neutralized with complete F12K media and centrifuged to pellet the cells. The cell pellet was resuspended in complete F12K media at a concentration of 2.0×10^5/mL. Cells were seeded at 20,000 per well, 100 μL total volume, in a flat bottom tissue culture plate and allowed to adhere overnight.
On day two, A549 cells were pre-incubated with a 2,4-substituted pyrimidinediamine test compound or DMSO (control) (Sigma-Aldrich, St. Louis, MO, Catalog No. D2650) for 1 hour. The cells were then stimulated with IFNγ (75 ng/mL) (Peprotech Inc., Rocky Hill, NJ, Cat. No. 300-02) and allowed to incubate for 24 hours. The final test compound dose range was 30 μM to 14 nM in 200 μL F12K media containing 5% FBS, 0.3% DMSO.
On day three, the cell media was removed and the cells were washed with 200 μL PBS (phosphate buffered saline). Each well was trypsinized to dissociate the cells, then neutralized by addition of 200 μL complete F12K media. Cells were pelleted and stained with an APC conjugated mouse anti-human ICAM-1 (CD54) (BD Pharmingen, San Diego, CA, Catalog #559771) antibody for 20 minutes at 4° C. Cells were washed with ice cold FACS buffer (PBS+2% FBS) and surface ICAM-1 expression was analyzed by flow cytometry. Detection was performed using a BD LSR I System Flow Cytometer, purchased from BD Biosciences of San Jose, California Events were gated for live scatter and the geometric mean was calculated (Becton-Dickinson CellQuest software version 3.3, Franklin Lakes, NJ). Geometric means were plotted against the compound concentration to generate a dose response curve.

| SMILES | pIC50 |
| --- | --- |
| C#CCOc1ccc(Nc2nc(Nc3ccc(C)c(S(N)(=O)=O)c3)ncc2F)cc1Cl [VI-59, N2-(3-Aminosulfonyl-4-methylphenyl)-N4-[3-chloro-4-(prop-2-ynyloxy)phenyl]-5-fluoro-2,4-pyrimidinediamine] | 5.30 |
| N#CCc1c[nH]c2ccc(Nc3nc(Nc4cccc(S(N)(=O)=O)c4)ncc3F)cc12 [IX-13, N2-(3-Aminosulfonylphenyl)-N4-(3-cyanomethyl-1H-indol-5-yl)-5-fluoro-2,4-pyrimidinediamine] | 4.52 |
| C#CCOc1ccc(Nc2nc(Nc3ccc(C)c(S(N)(=O)=O)c3)ncc2F)cc1 [VI-53, N2-(3-Aminosulfonyl-4-methylphenyl)-5-fluoro-N4-[4-(prop-2-ynyloxy)phenyl]-2,4-pyrimidinediamine] | 4.95 |
| C#CCn1ccc2cc(Nc3nc(Nc4ccc(C)c(S(N)(=O)=O)c4)ncc3F)ccc21 [IX-1, N2-(3-Aminosulfonyl-4-methylphenyl)-5-fluoro-N4-[1-(propyn-3-yl)indol-5-yl]-2,4-pyrimidinediamine] | 5.31 |
| COc1ccc(Nc2nc(Nc3cccc(S(N)(=O)=O)c3)ncc2Br)cc1Cl [VI-26, N2-(3-aminosulfonylphenyl)-5-bromo-N4-(3-chloro-4-methoxyphenyl)-2,4-pyrimidinediamine] | 5.77 |
| COc1ccc(Nc2nc(Nc3cc(Cl)c(C)c(S(N)(=O)=O)c3)ncc2F)cc1Cl [VI-13, N2-(3-Aminosulfonyl-5-chloro-4-methylphenyl)-N4-(3-chloro-4-methoxyphenyl)-5-fluoro-2,4-pyrimidinediamine] | 5.08 |
| COc1c(C)cc(Nc2ncc(F)c(Nc3ccc(C(C)(C)C)cc3)n2)cc1S(N)(=O)=O [VI-37, N2-(3-Aminosulfonyl-4-methoxy-5-methylphenyl)-N4-(4-tert-butylphenyl)-5-fluoro-2,4-pyrimidinediamine] | 4.91 |
| N#CCN1C(=O)CSc2ccc(Nc3nc(Nc4cccc(S(N)(=O)=O)c4)ncc3F)cc21 [Compound V-12, N2-(3-Aminosulphonylphenyl)-5-fluoro-N4-(3-oxo-4-cyanomethyl-benzo[1,4]thiazin-6-yl)-2,4-pyrimidinediamine] | 4.27 |

Results, then the compound that gave them:

| pIC50 | SMILES |
| --- | --- |
| 5.35 | NS(=O)(=O)c1cccc(Nc2ncc(F)c(Nc3ccc(CCCO)cc3)n2)c1 [VI-86, N2-(3-Aminosulfonylphenyl)-5-fluoro-N4-[4-(3-hydroxypropyl)phenyl]-2,4-pyrimidinediamine] |
| 5.19 | NS(=O)(=O)c1cccc(Nc2ncc(F)c(Nc3ccc4ncccc4c3)n2)c1 [VII-70, N2-(3-Aminosulfonylphenyl)-5-fluoro-N4-(quinolin-6-yl)-2,4-pyrimidinediamine] |
| 5.00 | Cc1ccc2cc(Nc3nc(Nc4cccc(S(N)(=O)=O)c4)ncc3F)ccc2n1 [VII-72, N2-(3-Aminosulfonylphenyl)-5-fluoro-N4-(2-methylquinolin-6-yl)-2,4-pyrimidinediamine] |
| 5.24 | NS(=O)(=O)c1cccc(Nc2ncc(F)c(Nc3ccc(CCCCO)cc3)n2)c1 [VI-89, N2-(3-Aminosulfonylphenyl)-5-fluoro-N4-[4-(4-hydroxybutyl)phenyl]-2,4-pyrimidinediamine] |
| 5.09 | COc1ccc(Nc2nc(Nc3ccc(N4CCN(C)CC4)c(S(N)(=O)=O)c3)ncc2F)cc1Cl [VI-116, N2-[3-Aminosulfonyl-4-(4-methylpiperazine-1-yl)phenyl]-N4-(3-chloro-4-methoxyphenyl)-5-fluoro-2,4-pyrimidinediamine] |
| 4.83 | Cc1ccc(Nc2ncc(F)c(Nc3ccc(O)cc3)n2)cc1S(N)(=O)=O [VI-102, N2-(3-Aminosulfonyl-4-methylphenyl)-5-fluoro-N4-[4-hydroxyphenyl]-2,4-pyrimidinediamine] |
| 4.97 | Cc1ccc(Nc2ncc(F)c(Nc3ccc4sccc4c3)n2)cc1S(N)(=O)=O [VII-57, N2-(3-Aminosulfonyl-4-methylphenyl)-N4-(benzothiophen-5-yl)-5-fluoro-2,4-pyrimidinediamine] |
| 4.61 | NS(=O)(=O)c1ccc(Nc2ncc(F)c(Nc3ccc(CCCO)cc3)n2)cc1 [VI-85, N2-(4-Aminosulfonylphenyl)-5-fluoro-N4-[4-(3-hydroxypropyl)phenyl]-2,4-pyrimidinediamine] |
